# Data taken from patent US8765696B2, “Steroid compound” (Mikasa Seiyaku Co., Ltd., priority 2009, dated 2014).
# Assays:
# [1] = test system: croton oil-induced ear edema; assay: Test for croton oil-induced ear edema; assay type: in vivo; conditions: rat right auricle; for Edema suppression rate of 6 hours after administration of inflammatory agent (%): 6 hours after croton oil; for Edema suppression rate of 24 hours after administration of inflammatory agent (%): 24 hours after croton oil
# Procedure: Croton oil ear edema test, which is a representative model for dermatitis, was used to study the pharmacological effect of compounds of the present invention.
# Five individuals/group of rats of 5 weeks old (body weight, 128 g to 169 g) were used. One day before the test, the thickness of the right ear was measured under ether anesthesia using a dial thickness gauge, to obtain the Pre value. On the day of the test, 20 mg each of the ointments to be tested, which had been prepared to have various concentrations in white vaseline, was applied to the right auricle (both sides) of each rat, and a collar was then placed around the neck of the rat to prevent contacting/scratching and removal of the drug. Two hours later, the ointment was wiped off under ether anesthesia using absorbent cotton, and 0.1 mL of 5% croton oil (croton oil:ether:pyridine:distilled water=1:14:4:1) solution was applied dropwise to the both sides of the auricle while drying the solution with a drier (air blow), to induce ear edema. Six and 24 hours after the induction of the edema, the thickness of the right auricle was measured under ether anesthesia, and the edema rate and the edema suppression rate were calculated according to the equations below, which suppression rate is shown in Table 1.
# [2] = test system: croton oil-induced granuloma; assay: Test for croton oil-induced granuloma (air pouch exudate and thymus weight); assay type: in vivo, rat; conditions: male Wistar rats, 7 days, vs control group
# From the text: Using the croton oil granuloma test, which is a test method with which the local anti-inflammatory action and the systemic side effect can be evaluated at the same time, the pharmacological effect and the systemic side effect of the compounds of the present invention were studied.
# Five individuals/group of male Wistar rats having body weights of 180 to 225 g were used, and hair on the back of these rats was shaved with a clipper under ether anesthesia, followed by preparing an air pouch by subcutaneous injection of 20 mL of air at the back. On the next day, 1 mL of cottonseed oil containing 1% croton oil was administered to the pouch. Each test drug was suspended in the croton oil-containing cottonseed oil before administration. Seven days later, blood was collected from abdominal aorta under ether anesthesia, and exudate in the pouch was collected and its fluid amount was measured. Further, the thymus was removed, and its weight was measured. The weight of the exudate and the weight of the thymus are shown in Table 2 as the suppression rate and the atrophy rate (%) with respect to those of the control group.
Structure (SMILES),Edema suppression rate of 6 hours after administration of inflammatory agent (%) ([1]; ointment concentration 0.001%),Edema suppression rate of 24 hours after administration of inflammatory agent (%) ([1]; ointment concentration 0.001%),Edema suppression rate of 6 hours after administration of inflammatory agent (%) ([1]; ointment concentration 0.01%),Edema suppression rate of 24 hours after administration of inflammatory agent (%) ([1]; ointment concentration 0.01%),Edema suppression rate of 6 hours after administration of inflammatory agent (%) ([1]; ointment concentration 0.1%),Edema suppression rate of 24 hours after administration of inflammatory agent (%) ([1]; ointment concentration 0.1%),Rate of exudates suppression (pharmacological effects) ([2]; dose 0.001 mg/rat into pouch) [%],Rate of thymus atrophy (systemic side effects) ([2]; dose 0.001 mg/rat into pouch) [%],Rate of exudates suppression (pharmacological effects) ([2]; dose 0.01 mg/rat into pouch) [%],Rate of thymus atrophy (systemic side effects) ([2]; dose 0.01 mg/rat into pouch) [%],Rate of exudates suppression (pharmacological effects) ([2]; dose 0.1 mg/rat into pouch) [%],Rate of thymus atrophy (systemic side effects) ([2]; dose 0.1 mg/rat into pouch) [%],Rate of exudates suppression (pharmacological effects) ([2]; dose 1 mg/rat into pouch) [%],Rate of thymus atrophy (systemic side effects) ([2]; dose 1 mg/rat into pouch) [%]
CC(=O)OC1C(C)OC(OCC(=O)C23OC(C4CCCCC4)OC2CC2C4CCC5=CC(=O)C=CC5(C)C4C(O)CC23C)C(OC(C)=O)C1OC(C)=O (centres unmarked) [Compound 10],42.4,45.8,55.9,33.2,38.9,39.9,4.6,0.0,0.0,0.0,4.8,0.0,5.3,0.0
"C[C@]12C=CC(=O)C=C1CC[C@@H]1[C@@H]2[C@@H](O)C[C@@]2(C)[C@H]1C[C@H]1O[C@@H](C3CCCCC3)O[C@]12C(=O)CO [desCIC, des-ciclesonide, reference compound]",–,–,–,–,–,–,62.0,0.0,74.1,11.7,92.7,22.4,94.1,86.4
CC(=O)NC1C(OCC(=O)C23OC(C4CCCCC4)OC2CC2C4CCC5=CC(=O)C=CC5(C)C4C(O)CC23C)OC(COC(C)=O)C(OC(C)=O)C1OC(C)=O (centres unmarked) [Compound 12],29.9,36.6,16.7,29.6,12.4,9.1,3.6,0.0,0.0,5.8,0.0,17.7,76.5,8.0
CCCC(=O)OCC1OC(OCC(=O)C23OC(C4CCCCC4)OC2CC2C4CCC5=CC(=O)C=CC5(C)C4C(O)CC23C)C(OC(=O)CCC)C(OC(=O)CCC)C1OC(=O)CCC (centres unmarked) [Compound 5],21.7,11.1,61.5,48.1,57.6,52.3,17.8,0.0,14.3,0.0,40.4,0.0,91.4,0.0
CC12C=CC(=O)C=C1CCC1C2C(O)CC2(C)C1CC1OC(C3CCCCC3)OC12C(=O)COC1OC(COC=O)C(OC=O)C(OC=O)C1OC=O (centres unmarked) [Compound 7],42.3,52.0,49.7,53.4,48.5,53.5,8.7,2.9,52.4,0.0,59.4,5.8,76.8,19.5
"CCCC1O[C@@H]2C[C@H]3[C@@H]4CCC5=CC(=O)C=C[C@]5(C)[C@H]4[C@@H](O)C[C@]3(C)[C@]2(C(=O)CO)O1 (some centres unmarked) [Budesonide, budesonide, reference compound]",11.8,7.6,32.3,33.5,48.1,45.1,10.8,7.3,66.9,17.7,91.6,74.5,94.3,87.5
CC12C=CC(=O)C=C1CCC1C2C(O)CC2(C)C1CC1OC(C3CCCCC3)OC12C(=O)COC1OC(CO)C(O)C(O)C1O (centres unmarked) [Compound 2],13.5,12.5,36.8,38.2,50.2,49.5,–,–,–,–,–,–,–,–
"CCCC1O[C@@H]2C[C@H]3[C@@H]4CCC5=CC(=O)C=C[C@]5(C)[C@H]4[C@@H](O)C[C@]3(C)[C@]2(C(=O)CO)O1 (stereo partly drawn) [Budesonide(R), reference compound]",–,–,–,–,–,–,7.6,15.6,44.9,25.8,88.4,74.5,93.0,90.2
